Test results published in PMC5299686, “Betanodavirus-like particles enter host cells via clathrin-mediated endocytosis in a cholesterol-, pH- and cytoskeleton-dependent manner” (Veterinary Research, 2017).
Like-named read-outs stand apart in the source and are kept apart here.

Key:
SB cells = assay: Cytotoxicity assay (CellTiter 96 AQueous One Solution Cell Proliferation Assay)
Method: To optimize the working concentration of the inhibitors, the cytotoxicity of the drugs to SB cells were evaluated. SB cells grown in 96-well plates were treated with the inhibitors at different concentrations for 4 h. Then cell viability was assayed using CellTiter 96® AQueous One Solution Cell Proliferation Assay (Promega, USA) according to the manufacturer’s instructions.

RBS entry into SB cells [1] = assay: VLP (RBS) entry assay with inhibitor or siRNA perturbation, ELISA quantitation; format: cell-based, Lates calcarifer; details: for change of RBS entry efficiency compared with untreated cells: 2 h entry
Method: (§1) Virus-like particles entry (invasion) assays were performed using SB or other indicated cells as described. In brief, the cells were seeded on coverslips in 12-well plates or cultured in 96-well plates for 18 or 24 h to achieve 70% confluence, pretreated with the indicated inhibitors at the indicated temperature (26 °C for fish cells, 28 °C for insect cells, and 37 °C for mammalian cells) and concentration (Table 1) for 1 h, and then incubated with RBS or CGV in the presence of the inhibitors for 1 h on ice. After that, the cells were washed three times with pre-cooling PBS, shifted to 28 °C to start entry, and visualized directly by fluorescent microscopy for CGV entry kinetics, or fixed for IFA followed by fluorescent microscopy, or collected for ELISA at the indicated times. In the untreated (positive) or mock-infected (negative) controls, the cells were subjected to no inhibitor treatment or no VLP incubation respectively. The entry assay of each inhibitor was repeated at least three times.
Six wells of cells in a 96-well plate treated with the same condition in entry assays were washed thoroughly with PBS, lysed with 20 μL of lysis buffer in each well and combined as one sample. Endogenous β-actin was used as an internal normalization control for ELISA. Three-hundred microliters of 30-fold diluted lysate for VLP detection or 100-fold diluted lysate for β-actin detection were coated equally in three wells of a 96-well microtiter plate at 4 °C overnight, respectively. The plate was conducted to room temperature and washed three times with 200 μL PBS. After blocking with 5% bovine serum albumin (BSA) in PBS for 1 h at room temperature and washing three times (all washes below indicate triplicate washings) with 200 μL PBS containing 0.05% Tween20 (PBST), the plate was incubated with in-house produced mouse anti-VLP antiserum at a dilution of 1:2000 in PBS for 1 h. The plate was washed and peroxidase-conjugated goat anti-mouse IgG (Sigma) at a dilution of 1:3000 in PBS was added and incubated for 1 h. Following thorough washings (five times), 100 μL of OPD substrate (Sigma) was added and the color development was conducted at room temperature. The reaction was stopped by the addition of 4 M sulfuric acid and the absorbance at 492 nm was determined. The OD492 of each sample including treated and untreated cells was normalized with the corresponding OD492 of β-actin to obtain the relative VLP quantity. The entry efficiency was generated as the percentage of treated cells with incorporated VLP relative to that for untreated cells. The VLP entry efficiency of untreated cells was arbitrarily set as 100%. The data shown are the mean ± SD of the results from three independent experiments. Statistical differences of VLP content from different groups were assessed by paired Student’s t tests. Numerical results are presented as mean ± SD with 95% confidence intervals and p < 0.05 was considered statistically significant (*, p < 0.05; **, p < 0.01).

RBS entry into SB cells [2] = assay: VLP (RBS) entry assay, IFA and fluorescent microscopy; format: cell-based, Lates calcarifer; details: at the working concentrations (CPZ 1 to 70 μM; dynasore 1, 10, 80 μM; siRNA 48 h post-transfection)
Method: (§2) Virus-like particles entry (invasion) assays were performed using SB or other indicated cells as described. In brief, the cells were seeded on coverslips in 12-well plates or cultured in 96-well plates for 18 or 24 h to achieve 70% confluence, pretreated with the indicated inhibitors at the indicated temperature (26 °C for fish cells, 28 °C for insect cells, and 37 °C for mammalian cells) and concentration (Table 1) for 1 h, and then incubated with RBS or CGV in the presence of the inhibitors for 1 h on ice. […]
(§3) Cells were washed twice with PBS, fixed with 4% paraformaldehyde for 15 min, permeated with 0.2% Triton X-100 for 10 min, and then blocked with 5% BSA for 1 h. […] For identification of entry and trafficking of RBS in cells, images were acquired using a laser scanning confocal fluorescence microscope (TCS-SP5, Leica Microsystems Wetzlar GmbH Inc., Germany). Images were acquired randomly from 5 different fields of view per coverslip to get more than 20 cells and to allow observing the signals of targets and nuclei fluorescence by Leica Application Suite (2.6.0 build 7266). […] The results are expressed as the mean ± standard deviation (SD).

RBS entry into GB cells = assay: VLP entry assay and IFA on GB cells; format: cell-based, Epinephelus coioides; details: GB cells pretreated with CPZ for 1 h
Method: as §2, §3

[3] = test system: RBS entry into SSN-1 cells; assay: VLP entry assay and IFA on SSN-1 cells; format: cell-based, Channa striatus; details: SSN-1 cells pretreated with CPZ for 1 h
Method: as §2, §3

CGV entry into SB cells = assay: CGV entry assay, ELISA quantitation; format: cell-based, Lates calcarifer
Method: as §1, with “In the untreated (positive) or mock-infected (negative) controls, the cells were subjected to no inhibitor treatment or no VLP incubation respectively. The entry assay of each inhibitor was repeated at least three times.” left out
Six wells of cells in a 96-well plate treated with the same condition in entry assays were washed thoroughly with PBS, lysed with 20 μL of lysis buffer in each well and combined as one sample. […] The reaction was stopped by the addition of 4 M sulfuric acid and the absorbance at 492 nm was determined. The OD492 of each sample including treated and untreated cells was normalized with the corresponding OD492 of β-actin to obtain the relative VLP quantity. […] Statistical differences of VLP content from different groups were assessed by paired Student’s t tests. […]

[4] = Lates calcarifer, read-out: RBS entry blocked (inhibited)
[5] = 40 μM inhibitor alone, SB cells, ELISA
[6] = 1 mM inhibitor, SB cells, ELISA

For CN(C)C[C@H](O)Cn1c2ccc(Br)cc2c2cc(Br)ccc21 (racemic) [wiskostatin], the “MC, max concentration that can be used without cytotoxicity” value (SB cells; SB cells, 4 h treatment) was 50 µM, the inhibition at 1 µM (RBS entry into SB cells [1]; [4]) was 77.9% and the inhibition at 10 µM (RBS entry into SB cells [1]; [4]) was 84.6%. It also gave an inhibition at 50 µM (RBS entry into SB cells [1]; [4]) of 94.2%.
In the case of CN(C)CCCN1c2ccccc2Sc2ccc(Cl)cc21 [CPZ, chlorpromazine], the “MC, max concentration that can be used without cytotoxicity” value (SB cells; SB cells, 4 h treatment) is reported as 700 µM, the “change of RBS entry efficiency compared with untreated cells” value (“change of RBS entry efficiency” for short) (RBS entry into SB cells [1]; 7 μM inhibitor alone, SB cells, ELISA) is reported as “dramatically reduced” and the “VLP entry efficiency (untreated cells = 100%)” value (RBS entry into SB cells [1]; 70 μM inhibitor, SB cells, ELISA) is reported as 5%. For the same compound, the inhibition at 1 µM (RBS entry into SB cells [1]; [4]) was 70%, the inhibition at 7 µM (RBS entry into SB cells [1]; [4]) was 80% and the inhibition at 70 µM (RBS entry into SB cells [1]; [4]) was 95%. The “fluorescent signal of RBS in cells (IFA) compared with untreated cells” value (RBS entry into SB cells [2]) was “significantly reduced”, the “VLP entry efficiency in treated compared with untreated samples (IFA)” value (RBS entry into GB cells) was “dramatically decreased” and the “VLP entry efficiency in treated compared with untreated samples (IFA)” value [3] was “dramatically decreased”.
C=C1[C@@H](C)[C@H]2[C@H](Cc3ccccc3)NC(=O)[C@]23[C@H](OC(C)=O)/C=C/[C@@](C)(O)C(=O)[C@@H](C)C/C=C/[C@H]3[C@@H]1O [CytD, cytochalasin D] was tested, and the “MC, max concentration that can be used without cytotoxicity” value (SB cells; SB cells, 4 h treatment) was 77.8 µM, the inhibition at 1 µM (RBS entry into SB cells [1]; [4]) was 83.2% and the inhibition at 10 µM (RBS entry into SB cells [1]; [4]) was 96%. The inhibition at 77.8 µM (RBS entry into SB cells [1]; [4]) was 96.5%.
In the case of Oc1ccc2ccccc2c1SSc1c(O)ccc2ccccc12 [IPA-3], the “MC, max concentration that can be used without cytotoxicity” value (SB cells; SB cells, 4 h treatment) is reported as 40 µM and the “change of RBS entry efficiency” value (RBS entry into SB cells [1]; [5]) is reported as “no statistically significant change”.
O=S(=O)(c1cccc2c(I)cccc12)N1CCCNCC1 [ML-7] was tested, and the “MC, max concentration that can be used without cytotoxicity” value (SB cells; SB cells, 4 h treatment) was 40 µM and the “change of RBS entry efficiency” value (RBS entry into SB cells [1]; [5]) was “no statistically significant change”.
Cl.N [NH4Cl, ammonia chloride] was tested, and the “MC, max concentration that can be used without cytotoxicity” value (SB cells) was 50 000 μM and the “VLP entry efficiency (untreated cells = 100%)” value (RBS entry into SB cells [1]; 50 mM inhibitor, SB cells, ELISA) was 25%.
With CCN(CC)CCCC(C)Nc1nc(C)cc(Nc2ccc3nc(C)cc(N)c3c2)n1 (centres unmarked) [NSC23766] the “MC, max concentration that can be used without cytotoxicity” value (SB cells; SB cells, 4 h treatment) was 40 µM and the “change of RBS entry efficiency” value (RBS entry into SB cells [1]; [5]) was “no statistically significant change”.
For CCN(CC)CCCC(C)Nc1ccnc2cc(Cl)ccc12 (centres unmarked) [chloroquine], the “MC, max concentration that can be used without cytotoxicity” value (SB cells; SB cells, 4 h treatment) was 1000 µM, the “RBS entry blocked (inhibited)” value (RBS entry into SB cells [1]; [6]) was “totally block” and the inhibition at 10 µM (RBS entry into SB cells [1]; [4]) was over 70%.
For CC(C)CCC[C@@H](C)[C@H]1CC[C@H]2[C@@H]3CC=C4C[C@@H](O)CC[C@]4(C)[C@H]3CC[C@]12C [cholesterol], the “effect of cholesterol supplement on CGV entry” value (CGV entry into SB cells; SB cells not treated with MβCD) was “did not enhance the entry of CGV” and the “CGV entry efficiency after cholesterol replenishment compared with mock-treated cells” value (CGV entry into SB cells; SB cells pretreated with 5 mM MβCD, then exogenous cholesterol 0.8 μg/μL for 1 h) was 57%.
With O=C(N/N=C/c1ccc(O)c(O)c1)c1cc2ccccc2cc1O [dynasore] the “MC, max concentration that can be used without cytotoxicity” value (SB cells; SB cells, 4 h treatment) was 800 µM, the “VLP entry efficiency (untreated cells = 100%)” value (RBS entry into SB cells [1]; 1 μM inhibitor, SB cells, ELISA) was 71.4% and the “VLP entry efficiency (untreated cells = 100%)” value (RBS entry into SB cells [1]; 10 μM inhibitor, SB cells, ELISA) was 48.5%. The “VLP entry efficiency (untreated cells = 100%)” value (RBS entry into SB cells [1]; 80 μM inhibitor, SB cells, ELISA) was 40% and the “fluorescent signal of RBS in cells (IFA) compared with untreated cells” value (RBS entry into SB cells [2]) was “significantly reduced”.
O=c1c(-c2ccc(O)cc2)coc2cc(O)cc(O)c12 [genistein] was tested, and the “MC, max concentration that can be used without cytotoxicity” value (SB cells; SB cells, 4 h treatment) was 100 µM and the “entry quantity of VLP compared with mock-treated control” value (RBS entry into SB cells [1]; 100 μM inhibitor, SB cells, ELISA) was 88%.
For COC(=O)Nc1nc2ccc(C(=O)c3cccs3)cc2[nH]1 [nocodazole], the “MC, max concentration that can be used without cytotoxicity” value (SB cells; SB cells, 4 h treatment) was 160 µM, the inhibition at 1 µM (RBS entry into SB cells [1]; [4]) was 59.4% and the inhibition at 5 µM (RBS entry into SB cells [1]; [4]) was 74%. It also gave an inhibition at 50 µM (RBS entry into SB cells [1]; [4]) of 81.3%.
In the case of CC(=O)c1c(O)c(C)c(O)c(Cc2c(O)c3c(c(C(=O)/C=C/c4ccccc4)c2O)OC(C)(C)C=C3)c1O [rottlerin], the “MC, max concentration that can be used without cytotoxicity” value (SB cells; SB cells, 4 h treatment) is reported as 40 µM and the “change of RBS entry efficiency” value (RBS entry into SB cells [1]; [5]) is reported as “no statistically significant change”.
With COC[C@H]1OC(=O)c2coc3c2[C@@]1(C)C1=C(C3=O)[C@@H]2CCC(=O)[C@@]2(C)C[C@H]1OC(C)=O [wortmannin] the “MC, max concentration that can be used without cytotoxicity” value (SB cells; SB cells, 4 h treatment) was 50 µM, the inhibition at 1 µM (RBS entry into SB cells [1]; [4]) was -1.4% and the inhibition at 10 µM (RBS entry into SB cells [1]; [4]) was 0.82%. It also gave an inhibition at 50 µM (RBS entry into SB cells [1]; [4]) of 23%.
methyl-β-cyclodextrin [MβCD] was tested, and the “RBS entry blocked (inhibited)” value (RBS entry into SB cells [1]; 0.5 mM inhibitor, SB cells, ELISA) was 63.6%, the “RBS entry blocked (inhibited)” value (RBS entry into SB cells [1]; [6]) was 59.5% and the “RBS entry blocked (inhibited)” value (RBS entry into SB cells [1]; 2 mM inhibitor, SB cells, ELISA) was 74.4%.
